This is an account of results in patent US7563461B2, “Zinc salt compositions for the prevention of dermal and mucosal irritation” (The Trustees of Columbia University in the City of New York, priority 2002, dated 2009).

In one data set the test system is vaginal mucosa. The data set can be described thus: Nonoxynol-9-induced irritation of vaginal mucosa in a rabbit model. Particulars: gel-based lubricant containing 9% nonoxynol-9, rabbits.
The conditions of data set [1]: cited from earlier work.

Excerpt for vaginal mucosa: This animal model was used to evaluate the anti-irritant efficacy of various zinc salt compositions in vivo.
Two ml of the zinc salt lubricant compositions indicated in Table 3 was instilled into the vagina of each rabbit daily for five consecutive days. At the end of this period, a veterinary pathologist evaluated each animal both macroscopically and microhistopathologically and scored the degree of vaginal irritation that was present. Irritation was quantified as follows: 0=No irritation, 1-4=Minimal Irritant, 5-8=Mild Irritation, 9-11=Moderate Irritation, 12-16=Severe Irritation.

On to nonoxynol-9, for which, in the data set on vaginal mucosa, the “irritation of the vaginal mucosa” value was “mild to moderate irritation”. As for zinc picolinate, in data set [1], the “water solubility (in words)” value is given as “moderately water soluble”.
